| melting point [°C] | Compound |
| --- | --- |
| 137 to 139 | COc1ccc(C2=NN(CC3CCCCC3)C(=O)[C@H]3CCCC[C@@H]23)cc1OC (relative stereo) |
| 126 to 129 | CN1CCN(C2(CN(C)C(=O)c3ccc(Cl)c(Cl)c3)CCCCC2)CC1 |
| 145 to 156 | N#Cc1c(N2CCN(C(=O)c3cnccn3)CC2)c2ccccc2n(Cc2ccc(F)cc2)c1=O |
| 185 to 187 | CC(C)N1C(=O)NC(c2ccc3c(c2)OCCO3)c2cc3c(cc21)OCO3 (stereo unspecified) |
| 137 to 138 | O=C(O)c1ccc(C(F)(F)F)nc1C=CCCl |
| 101 to 103 | COc1cccc(C2=C(CC(C)N3CCCCC3)C(=O)N(C)CCC2)c1 (stereo unspecified) |
| 183 to 184 | NC(=O)Cn1c(Cl)ccc1Cl |
| 135 to 136 | Cc1oc(-c2ccco2)nc1COc1cccc(COc2nn(Cc3ccccc3)cc2C=O)c1 |
| 96 to 98 | CC(C)(C)OC(=O)NCCC(=O)NCc1cccc2c1C(=O)N(C1CCC(=O)NC1=O)C2=O (stereo unspecified) |
| 210 to 211 | Cc1ccc(C(=O)NC(NC(=S)Nc2ccccc2C)C(F)(F)F)cc1 (stereo unspecified) |
| 173 to 174 | COc1cc(Oc2ccc(S(C)(=O)=O)nc2)cc2cc(C3=NCC(CC(=O)NCC(C)(C)O)S3)[nH]c12 (stereo unspecified) |
| 222 to 224 | O=C(CO)Nc1nc(-c2ccc(Br)cc2)cs1 |
| 91 to 96 | CC(C)c1ccc(Nc2ccccc2[N+](=O)[O-])c(C#N)c1 |
| 74 to 76 | CCOC(=O)C1=Cc2c(OC)ccc(OC)c2CC1 |
| 98 to 100 | CS(=O)(=O)c1ccc(-c2cc(COCCO[N+](=O)[O-])nn2CC2CCCCC2)cc1 |
| 151 to 154 | CC(C)(C)c1cc(CCC(=O)NCCOC(=O)CCc2cc(C(C)(C)C)c(O)c(C(C)(C)C)c2)cc(C(C)(C)C)c1O |
| 96 to 98 | CC(=O)Nc1ccc(OCCCCCO[N+](=O)[O-])cc1 |
| 167 to 170 | CCOC(=O)CC1(S(N)(=O)=O)c2ccccc2-c2ccccc21 |
| 108 | CCCCCCCCCCCCCCCCCCSCCCCCCCCCCC(N)=O |

| melting point [°C] | Compound |
| --- | --- |
| 207 to 208 | FC(F)(F)c1ccc(N=c2ccc3nc4ccccc4sc-3c2)cc1 |
| 208 to 209 | COc1cc2ncnc(N3CCN(C(=O)Nc4cccnc4)CC3)c2cc1OC |
| 125 to 127 | O=[N+]([O-])c1ccc(Oc2cc(Cl)ncn2)cc1 |
| 83 to 84 | O=C1CCN(Cc2ccccc2OC(F)F)CC1C(c1ccc(F)cc1)c1ccc(F)cc1 (stereo unspecified) |
| 186 to 188 | CNc1cc(N2CCC(c3ccccc3)CC2)nc(C)n1 |
| 129 to 130 | Cc1cc(SCCC#Cc2ccc(C(F)(F)F)cc2)ccc1OCC(=O)O |
| 185 to 187 | O=C1Nc2cccc(-c3cncnc3)c2C12COc1cc3c(cc12)OCO3 (stereo unspecified) |
| > 260 | CCc1nc2c(N)nc3cc(/C=C/C(=O)N(C)C)ccc3c2n1CC1CCOCC1 |
| 235 to 236 | c1ccc2c(c1)nc(Nc1ccc3cn[nH]c3c1)c1nc(C3CCCC3)[nH]c12 |
| 198 to 203 | CC12CCC(O)CC1=CCC1C2CCC2(C)C(=C(F)CO)CCC12 (stereo unspecified) |
| 119 to 122 | N=C(Nc1cc(Cl)cc(NC(=O)C=Cc2ccccc2Cl)c1)c1ccc(NCc2ccccn2)cc1 |
| 224 to 228 | Cc1c(Cl)cccc1N=C1NCCN1C(=O)c1ccc(C#N)cc1 |
| 143 to 145 | COc1cccc2c(CC(=O)O)coc12 |
| 146 to 147 | FC(F)(F)Oc1ccc(Cn2cnc3c(-c4ccco4)ncnc32)cc1 |
| 125 to 127 | NCCCCCCCCNc1nc(N)nc2c1ncn2C1C=CC(CO)C1 (stereo unspecified) |
| 211 to 215 | Cc1ccc2c(c1)Oc1sc(C)cc1C(=O)N2 |
| 80 to 82 | COc1ccc(CN2C(=O)C(CCO)Oc3ccccc32)cc1 (stereo unspecified) |
| 103 to 104 | CCCCCCCCCCCCOC(=O)c1ccc2cc(O)ccc2c1 |
| 66 | CC(C)(C)OC(=O)NC1CCN(CCO)CC1 |

The next lines start with the compound.

| Compound | melting point [°C] |
| --- | --- |
| CCOC(=O)C1CN(C)c2nc3cc(F)c(F)cc3cc2C1=O (stereo unspecified) | 188 |
| CCOC(=O)CCN=c1sc2ccccc2s1 | 61 to 62 |
| COc1ccc(C(=O)Nc2ccc3ccc(Cl)nc3n2)cc1OC | 196 |
| COC(=O)C(C)=CC=P(c1ccccc1)(c1ccccc1)c1ccccc1 | 145 to 150 |
| CON=C(C(=O)OC)c1csc(NC(=O)CCl)n1 | 131 |
| CCCNC(=O)Nc1c(C(=O)OCC)cnn1-c1ccccc1 | 117 to 118 |
| N#CCc1ccc(Oc2ccc3c(c2)S(=O)(=O)NC2CCCN32)cc1 (stereo unspecified) | 156 to 158 |
| Oc1cccc(-c2nc3ccccc3s2)c1 | 110 |
| COc1ccc2cc(C(=O)CCCCCCC(=O)O)ccc2c1 | 148 to 149 |
| CCOC(=O)c1cnc2c(N(C)Cc3ccccc3)cc(CN3CCOCC3)cc2c1O | 151 to 153 |
| Cc1c(-c2cc(C(=O)O)c(Cl)cc2F)nn(C)c1C(F)(F)F | 155 |
| COc1c(C)c(C)c(O)c(C)c1CN(C)CCOc1cc(C)ccc1C(C)C | 75 to 77 |
| COc1cc(-c2nn(C)c(C(F)(F)F)c2Br)c(F)cc1Cl | 85 to 86 |
| O=S1(=O)CCc2nn(-c3ccc(Cl)cc3)c(Br)c2C1 | 138 to 145 |
| CCN(CC)CCNC(=O)c1cc(Cl)c(N)cc1OCCNC(C)=O | 143 to 145 |
| CC(C)(C)c1cccc(S(=O)(=O)n2c(C(F)c3ccc(C(=O)O)cc3)cc3cc(C(F)(F)F)ccc32)c1 (stereo unspecified) | 170 |
| CN1CCC(c2c[nH]c3ccc(NC(=O)c4ccc(Cl)cc4Cl)nc23)CC1 | 151 to 152 |

| Compound | melting point [°C] |
| --- | --- |
| Cc1[nH]cc2c(=O)n(-c3ccc(Cl)cc3)nc-2c1-c1cccc(C(=O)N2CCCC2)c1 | 253 to 255 |
| CC(C)C[C@H](C(=O)OCc1ccccc1)N1CC[C@]2(CCCN2C(=O)C(C)C)C1=O | 87 |
| NC(=O)N(O)Cc1ccc(OCc2csc(-c3ccccc3)n2)cc1 | 161 to 164 |
| CC(C)(Oc1ccc(OCc2cccc3c2cnn3-c2ccc(C(F)(F)F)cc2)cc1)C(=O)O | 128 to 130 |
| COc1ccc(OC)c(-c2cn(N)c(N)n2)c1 | 159 to 160 |
| COc1ccc(CCN2CCC(C(O)(c3ccccc3)c3nc4ccccc4s3)CC2)cc1 (stereo unspecified) | 67 to 70 |
| Cc1nn(-c2ccccn2)cc1COc1ccc(C=O)cc1 | 84 to 85 |
| CCNC(=O)Oc1ccccc1 | 49 to 50 |
| O=S1(=O)N=CN(C2CC2)c2cc(Br)c(C(F)(F)F)cc21 | 204 to 206 |
| O=C1N=C(N2CCCC2)SC1=Cc1ccc(-c2cc(F)c(O)c(C34CC5CC(CC(C5)C3)C4)c2)s1 | 312 to 315 |
| O=C(NCC(=O)N1CCSC1)c1cc2cc(Cl)ccc2[nH]1 | 253 to 255 |
| COC(=O)Nc1nc2cc(C3(c4ccccc4)OCC(C)(C)CO3)ccc2[nH]1 | 224 |
| COc1cc(Nc2c(C#N)cnc3cc(-c4ccc(CN5CCN(C)CC5)s4)ccc23)c(Cl)cc1Cl | 206 to 208 |
| CCN1C(=O)C(=CC=C2C=C(c3ccccc3)C=C3N2c2ccccc2C3(C)C)C(=O)N(CC)C1=S | > 310 |
| FC(F)(F)c1ccc2nc(N3CCN(c4ncncc4Cl)CC3)[nH]c2c1 | 66.6 to 66.7 |
| CCN1C(=O)C(C)(C)c2ccc(C(=O)Nc3ccncc3)cc21 | 209 to 211 |

Source: a melting point compilation (Tetko et al.; mined from patent text by program, amines drawn as free bases though some values may be those of a salt)
